Values of other authors as cited in patent US20250120985A1, “METHOD OF TREATING DIABETIC MACULAR EDEMA” (Oculis Operations Sàrl, priority 2023, published 2025).
≈ marks a conversion by molar mass, not a printed value.

Conditions: 25° C.

Compound	solubility in pure water
OC[C@H]1O[C@@H]2O[C@H]3[C@H](O)[C@@H](O)[C@@H](O[C@H]4[C@H](O)[C@@H](O)[C@@H](O[C@H]5[C@H](O)[C@@H](O)[C@@H](O[C@H]6[C@H](O)[C@@H](O)[C@@H](O[C@H]7[C@H](O)[C@@H](O)[C@@H](O[C@H]8[C@H](O)[C@@H](O)[C@@H](O[C@H]9[C@H](O)[C@@H](O)[C@@H](O[C@H]1[C@H](O)[C@H]2O)O[C@@H]9CO)O[C@@H]8CO)O[C@@H]7CO)O[C@@H]6CO)O[C@@H]5CO)O[C@@H]4CO)O[C@@H]3CO [γ-cyclodextrin]	249.2 ± 0.2 mg/mL (≈ 192 mM)
OC[C@H]1O[C@@H]2O[C@H]3[C@H](O)[C@@H](O)[C@@H](O[C@H]4[C@H](O)[C@@H](O)[C@@H](O[C@H]5[C@H](O)[C@@H](O)[C@@H](O[C@H]6[C@H](O)[C@@H](O)[C@@H](O[C@H]7[C@H](O)[C@@H](O)[C@@H](O[C@H]1[C@H](O)[C@H]2O)O[C@@H]7CO)O[C@@H]6CO)O[C@@H]5CO)O[C@@H]4CO)O[C@@H]3CO [α-cyclodextrin]	129.5 ± 0.7 mg/mL (≈ 133 mM)
